Experimental data: paper PMC6175296 (Clinical Pharmacology and Therapeutics, 2017)
Entries after “also recorded” stand apart in the source; their conditions may differ. Like-named read-outs stand apart in the source and are kept apart here. One block for each compound: values may come before it.

Assays:
[1] = molecular target: T1, CYP2C8 (Homo sapiens, UniProt P10632); assay: In vivo CYP2C8 inhibition judged from montelukast pharmacokinetics; details: montelukast as CYP2C8 probe substrate
T1 sequence (P10632 1-490): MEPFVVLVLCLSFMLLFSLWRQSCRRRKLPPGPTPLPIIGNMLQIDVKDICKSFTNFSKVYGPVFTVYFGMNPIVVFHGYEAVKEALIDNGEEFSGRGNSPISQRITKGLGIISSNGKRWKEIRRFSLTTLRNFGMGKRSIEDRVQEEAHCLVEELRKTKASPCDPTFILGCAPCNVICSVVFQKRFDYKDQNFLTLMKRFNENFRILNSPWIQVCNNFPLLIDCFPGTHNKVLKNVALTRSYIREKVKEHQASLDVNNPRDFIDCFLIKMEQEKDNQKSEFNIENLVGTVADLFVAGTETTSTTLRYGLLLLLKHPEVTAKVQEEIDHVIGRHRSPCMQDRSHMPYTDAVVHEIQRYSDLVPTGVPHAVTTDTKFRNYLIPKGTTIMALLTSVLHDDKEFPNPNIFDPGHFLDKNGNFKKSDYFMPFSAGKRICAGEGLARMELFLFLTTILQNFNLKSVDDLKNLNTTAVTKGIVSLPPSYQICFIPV

[2] = cited from earlier work
[3] = assay type: in vivo, humans
[4] = test system: OATP1B1; details: read-out: OATP1B1 Ki; “Clopidogrel 25” model; published value; cited from earlier work
[5] = test system: CYP2C8; details: read-out: CYP2C8 Ki; microsomal protein concentration 0.25 mg/mL; cited from earlier work
[6] = cited from earlier work; remark: listed apart in the source
[7] = cited from earlier work; remark: listed apart in the source
[8] = for AUC(0-inf): AUC0–∞; for tmax: median (range)
[9] = after 60 mg prasugrel oral, day 1, median (range)
[10] = after 300 mg clopidogrel oral, day 1, median (range)
[11] = both, human, plasma, po, 300 mg

SMILES: CC(=O)Oc1cc2c(s1)CCN(C(C(=O)C1CC1)c1ccccc1F)C2 (centres unmarked) [Prasugrel]
CYP2C8 inhibition in humans (conclusion) [1]: not a clinically relevant CYP2C8 inhibitor; also recorded: not a significant inhibitor of CYP2C8

SMILES: CCc1ccc(CCOc2ccc(CC3SC(=O)NC3=O)cc2)nc1 (centres unmarked) [Pioglitazone]
AUC increase by gemfibrozil ([2]; previous studies): about 3 fold
AUC increase by clopidogrel ([2]; previously reported): 2.0–2.1 fold

SMILES: O=C(O)[C@H]1O[C@@H](OC(=O)[C@H](c2ccccc2Cl)N2CCc3sccc3C2)[C@H](O)[C@@H](O)[C@@H]1O [Clopidogrel acyl‐β‐D‐glucuronide]
AUC0-13h [3, 10]: 16,200 (7,030–34,200) ng·h/mL
Cmax [3, 10]: 3,290 (1,470–9,680) ng/mL
tmax [3, 10]: 1.5 (0.92–3.0) h
t½ [3, 10]: 4.6 (3.9–6.6) h
Ki [4]: 5450 nM

SMILES: O=C(O)[C@H](c1ccccc1Cl)N1CCc2sccc2C1 [Clopidogrel carboxylic acid]
AUC0-13h [3, 10]: 38,500 (22,000–53,400) ng·h/mL
Cmax [3, 10]: 11,500 (7,410–19,700) ng/mL
tmax [3, 10]: 0.92 (0.92–1.5) h
t½ [3, 10]: 7.3 (5.8–9.2) h

SMILES: CC(C)(O)c1ccccc1CC[C@@H](SCC1(CC(=O)O)CC1)c1cccc(/C=C/c2ccc3ccc(Cl)cc3n2)c1 [Montelukast]
AUC increase by clarithromycin [2]: 2.4 fold
CYP2C8 inhibition in humans [2]: not a significant inhibitor of CYP2C8
decrease in exposure by fluconazole [2]: 30–40%
oral bioavailability [6]: 60–70%
bound to plasma proteins [7]: about 99.8%
AUC(0-inf) ([8]; both, human, plasma, oral, 10 mg, placebo phase, geometric mean (geometric CV)): 3020 ng·h/mL
tmax ([8]; both, human, plasma, oral, 10 mg, placebo phase): 3.5 h
AUC(0-inf) ([8]; both, human, plasma, oral, clopidogrel phase, geometric mean (geometric CV)): 5990 ng·h/mL
AUC(0-inf) ([8]; both, human, plasma, oral, prasugrel phase, geometric mean (geometric CV)): 2800 ng·h/mL
tmax ([8]; both, human, plasma, oral, clopidogrel phase): 4.5 h
tmax ([8]; both, human, plasma, oral, prasugrel phase): 3 h
half-life ([8]; both, human, plasma, oral, t½, clopidogrel phase, geometric mean (geometric CV)): 8.2 h
t½ ([8]; placebo phase, geometric mean (geometric CV)): 4.51 (18) h
prolongation in t½ ([8]; prasugrel phase vs placebo): 15%
t½ prolongation by prasugrel ([8]; prasugrel phase vs placebo): 1.15 fold
t½ ([8]; prasugrel phase, geometric mean (geometric CV)): 5.16 (20) h

SMILES: COC(=O)[C@H](c1ccccc1Cl)N1CCc2sccc2C1 [Clopidogrel]
AUC(0-t) [3, 11]: 13.2 ng·h/mL
Cmax [3, 11]: 3.53 ng/mL
half-life [3, 11]: 4.8 h
tmax [3, 11]: 1.5 h
clinically relevant inhibition of CYP3A4 or OATP1B1 ([2]; pitavastatin and simvastatin as substrates): not a clinically relevant inhibitor of CYP3A4 or OATP1B1
CYP2C8 inhibition in humans (conclusion) [1]: at least a moderate inhibitor of CYP2C8; also recorded: weaker CYP2C8 inhibitor than gemfibrozil

The next lines start with the values.

AUC0-13h [3, 9]: 495 (249–1090) ng·h/mL
Cmax [3, 9]: 428 (210–865) ng/mL
tmax [3, 9]: 0.92 (0.92–0.92) h
t½ [3, 9]: 3.9 (3.2–5.5) h
SMILES: O=C(O)/C=C1/CN(C(C(=O)C2CC2)c2ccccc2F)CCC1S (centres unmarked) [Prasugrel active metabolite (R‐138727)]

AUC0-13h [3, 9]: 495 (247–1140) ng·h/mL
Cmax [3, 9]: 240 (105–692) ng/mL
tmax [3, 9]: 0.92 (0.92–1.5) h
t½ [3, 9]: 7.1 (6.0–9.2) h
SMILES: O=C1C=C2CN(C(C(=O)C3CC3)c3ccccc3F)CCC2S1 (centres unmarked) [Prasugrel inactive metabolite (R‐95913)]

AUC0-13h [3, 10]: 32.0 (17.0–101) ng·h/mL
Cmax [3, 10]: 23.4 (12.6–80.1) ng/mL
tmax [3, 10]: 0.92 (0.92–1.5) h
t½ [3, 10]: 3.4 (0.84–4.8) h
SMILES: COC(=O)[C@H](c1ccccc1Cl)N1CC[C@@H](S)/C(=C\C(=O)O)C1 [Clopidogrel active metabolite]
